# The source made the active and inactive calls. The calls are words filed in the database; no cut-off is given here.
# Species on record: Oryctolagus cuniculus
# Conditions: at 2 mM
# Description: Inhibition of UBR protein in rabbit reticulocyte lysates assessed as inhibition of Tyr-nsP4 substrate degradation at 2 mM
row,Structure (SMILES),inhibition
1,N[C@@H](Cc1ccccc1)C(=O)NCCCCC(=O)O,Active
2,N[C@@H](Cc1ccccc1)C(=O)NCCCP(=O)(O)O,Active
3,CC(=O)N[C@@H](Cc1ccccc1)C(N)=O,inactive
4,N[C@@H](Cc1ccccc1)C(=O)NCCC(=O)O,Active
5,NC(=O)[C@@H](N)Cc1ccccc1,Active
6,CCCCCNC(=O)[C@@H](N)Cc1ccccc1,Active
7,CC(=O)N[C@@H](Cc1ccccc1)C(=O)O,inactive
8,COC(=O)CCCCNC(=O)[C@@H](N)Cc1ccccc1,Active

# Species on record: Oryctolagus cuniculus
# Assay: Inhibition of UBR protein in rabbit reticulocyte lysates assessed as inhibition of Arg-nsP4 substrate degradation at 1 mM after 30 mins by Western blot analysis
# Conditions: not given
row,Structure (SMILES),inhibition
1,CC(N)Cc1ccc(Cl)cc1 (configuration not stated),Active

# Species on record: Oryctolagus cuniculus
# Assay: Inhibition of UBR protein in rabbit reticulocyte lysates assessed as inhibition of Arg-nsP4 substrate degradation at 6 mM by SDS-PAGE in presence of bestatin
# Conditions: not given
row,Structure (SMILES),inhibition
1,C[C@H](NC(=O)[C@H](N)CCCNC(=N)N)C(=O)O,inactive

# Species on record: Oryctolagus cuniculus
# Conditions: not given
row,Structure (SMILES),T1/2
1,CC(N)Cc1ccc(Cl)cc1 (configuration not stated),1.05 h

# Species on record: Oryctolagus cuniculus
# Conditions: at 2 mM
# Remark: another data set of the same source
# Description: Inhibition of UBR protein in rabbit reticulocyte lysates assessed as inhibition of Tyr-nsP4 substrate degradation at 2 mM by immunoblotting analysis in presence of bestatin
row,Structure (SMILES),inhibition
1,N[C@@H](Cc1ccccc1)C(=O)NCCCCC(=O)O,Active
2,C[C@H](NC[C@@H](N)Cc1ccccc1)C(=O)O,inactive
3,N[C@@H](Cc1ccccc1)C(=O)NCCCP(=O)(O)O,Active
4,CC(N)Cc1ccccc1 (configuration not stated),Active
5,CC(=O)N[C@@H](Cc1ccccc1)C(N)=O,inactive
6,N[C@@H](Cc1ccccc1)C(=O)NCCC(=O)O,Active
7,NC(=O)[C@@H](N)Cc1ccccc1,inactive
8,CCCCCNC(=O)[C@@H](N)Cc1ccccc1,Active
9,CC(=O)N[C@@H](Cc1ccccc1)C(=O)N[C@@H](C)C(=O)O,inactive
10,CC(=O)N[C@@H](Cc1ccccc1)C(=O)O,inactive
11,CC(N)Cc1ccc(Cl)cc1 (configuration not stated),Active
12,COC(=O)CCCCNC(=O)[C@@H](N)Cc1ccccc1,Active

# Tested on: not listed separately
# Assay: Inhibition of UBR protein in rabbit reticulocyte lysates assessed as inhibition of Tyr-nsP4 substrate degradation by in vitro synthesis/degradation assay
# Parameters: species or system Oryctolagus cuniculus
# Conditions: not given
row,Structure (SMILES),IC50
1,CC(N)Cc1ccc(Cl)cc1 (configuration not stated),1.17 mM

# Species on record: Oryctolagus cuniculus
# Assay: Inhibition of UBR protein in rabbit reticulocyte lysates assessed as inhibition of Arg-nsP4 substrate degradation at 2 mM after 30 mins by Western blot analysis
# Conditions: not given
row,Structure (SMILES),inhibition
1,C[C@H](NC(=O)[C@@H](N)CCCN=C(N)N)C(=O)O,Active

# Species on record: Oryctolagus cuniculus
# Assay: Inhibition of UBR protein in rabbit reticulocyte lysates assessed as inhibition of RGS4 substrate degradation at 2 mM after 30 to 60 mins in presence of bestatin
# Conditions: not given
row,Structure (SMILES),inhibition
1,C[C@H](NC(=O)[C@H](N)CCCNC(=N)N)C(=O)O,inactive
2,C[C@H](NC(=O)[C@@H](N)CCCN=C(N)N)C(=O)O,Active
3,N=C(N)NCCC[C@@H](N)C(=O)N[C@@H](Cc1ccccc1)C(=O)O,inactive
4,NC(N)=NCCC[C@H](N)C(=O)N[C@@H](Cc1ccccc1)C(=O)O,Active

# Species on record: Oryctolagus cuniculus
# Assay: Inhibition of UBR protein in rabbit reticulocyte lysates assessed as inhibition of Arg-nsP4 substrate degradation at 2 mM by SDS-PAGE in presence of bestatin
# Conditions: not given
row,Structure (SMILES),inhibition
1,C[C@H](NC(=O)[C@@H](N)CCCN=C(N)N)C(=O)O,Active

# Tested on: not listed separately
# Assay: Inhibition of UBR protein in rabbit reticulocyte lysates assessed as inhibition of Arg-nsP4 substrate degradation by in vitro synthesis/degradation assay
# Parameters: species or system Oryctolagus cuniculus
# Conditions: not given
row,Structure (SMILES),IC50
1,C[C@H](NC(=O)[C@@H](N)CCCN=C(N)N)C(=O)O,1.2 mM
2,CC(N)Cc1ccc(Cl)cc1 (configuration not stated),0.935 mM
